# In US6809091B1, “Substances capable of inducing apoptosis” (Takara Bio Inc., priority 1998, dated 2004):
# What was measured:
# [1] = system: NO production in RAW 264.7 cells; test: inhibition of NO production, NO2− by Griess reagent; format: cell-based
# Method: (1) RAW 264.7 cells (ATCC TIB 71) were suspended to an extent of 3×10^5 cells/ml in an Eagle's medium modified by Dulbecco (manufactured by BioWhittaker; 12-917F) containing 10% fetal bovine serum (manufactured by Gibco), no Phenol Red and 2 mM of L-glutamine (manufactured by Lifetech Oriental; 25030-149) and each 500 μl of the suspension were added to each well of a 48-well microtiter plate and incubated at 37° C. for 12 hours in the presence of 5% carbon dioxide gas. To the well were added 10 μl of a 50 μg/ml lipopolysaccharide (LPS; manufactured by Sigma, L-2012) or each 10 μl of a 2.5 μg/ml of LPS and a 500 units/ml of interferon γ (manufactured by Genzyme; code MG-IFN), then 10 μl of a 1000, 500 or 250 μM aqueous solution of 2-(trans-3,4-dihydroxy-1-butenyl)-4-(trans-2-formylvinyl)-1,3-dioxolane were added, the mixture was incubated for 18 hours more and the NO2^− concentration generated by oxidation of NO in the medium was measured. Incidentally, a section to which LPS and interferon γ were not added and a section to which 2-(trans-3,4-dihydroxy-1-butenyl)-4-(trans-2-formylvinyl)-1,3-dioxolane was not added were prepared as controls.
# After the above incubation, 100 μl of a 4% Griess reagent (manufactured by Sigma; G4410) were added to 100 μl of the medium, the mixture was allowed to stand at room temperature for 15 minutes and the absorbance at 490 nm was measured. From a calibration curve prepared by NaNO2 of known concentrations dissolved in the above medium, the NO2^− concentration in the medium was calculated. All measurements were conducted in three series.
# human IL-10 = test: cytokine production in DSEK cells, ELISA; format: cell-based; settings: DSEK cell incubation, supernatant every 24 hours
# Method: (§1) Now, in the DSEK cell incubation, 150 μl/well of the supernatant liquid of the medium were recovered every 24 hours and influence of 4-hydroxy-2-cyclopenten-1-one or 4,5-dihydroxy-2-pentenal on the production of cytokines (human TGF-β, human FGF-β, human IL-1α and human IL-10) was measured using an ELISA-kit specific to each of the cytokine (the kit manufactured by INTERGEN or human FGF-β and human IL-10; and the kit manufactured by Promega for human IL-1α and human TGF-β).
# HL-60 cells = test: measurement of apoptosis cells using FACScan; format: cell-based, human; settings: HL-60, 24 hours and 48 hours
# Method: (2) HL-60 cells which were incubated on an RPMI 1640 medium containing 10% of fetal bovine serum processed at 56° C. for 30 minutes were suspended in an RPMI 1640 medium to make 2.5×10^5 cells/5 ml. […]
# human TGF-β = test: cytokine production in DSEK cells, ELISA; format: cell-based; settings: DSEK cell incubation, supernatant every 24 hours
# Method: as §1
compound,measurement,setting,value
"O=C/C=C/C1COC(/C=C/C(O)CO)O1 (stereo not drawn) [2-(trans-3,4-dihydroxy-1-butenyl)-4-(trans-2-formylvinyl)-1,3-dioxolane]",induction of NO production by LPS,[1]; 18 hours,inhibited
same,induction of NO production by LPS and interferon γ,[1]; 18 hours,inhibited
same,inhibition at 10 µM,"[1]; Mus musculus, RAW264.7, final concentration of 10 μM, read-out: inhibiting activity for NO production",~50%
"O=CC=CC(O)CO (single isomer, unassigned) [4,5-dihydroxy-2-pentenal, trans-4,5-dihydroxy-2-pentenal]",production of human IL-10,human IL-10,activated
Nc1nc2c(ncn2C2C=CC(=O)C2)c(=O)[nH]1 (stereo not drawn) [4-(9-guaninyl)-2-cyclopenten-1-one],final concentration at which apoptosis cells were confirmed,HL-60 cells,≥ 20 µM
same,production of human TGF-β,human TGF-β,inhibited
